Values quoted from earlier work as cited in patent US9000165B2 (priority 2011, dated 2015).

How the values were obtained:
[1] = biological target: T1, serotonin 5-HT2C receptors (Homo sapiens, UniProt P28335)
T1 sequence (P28335 33-458): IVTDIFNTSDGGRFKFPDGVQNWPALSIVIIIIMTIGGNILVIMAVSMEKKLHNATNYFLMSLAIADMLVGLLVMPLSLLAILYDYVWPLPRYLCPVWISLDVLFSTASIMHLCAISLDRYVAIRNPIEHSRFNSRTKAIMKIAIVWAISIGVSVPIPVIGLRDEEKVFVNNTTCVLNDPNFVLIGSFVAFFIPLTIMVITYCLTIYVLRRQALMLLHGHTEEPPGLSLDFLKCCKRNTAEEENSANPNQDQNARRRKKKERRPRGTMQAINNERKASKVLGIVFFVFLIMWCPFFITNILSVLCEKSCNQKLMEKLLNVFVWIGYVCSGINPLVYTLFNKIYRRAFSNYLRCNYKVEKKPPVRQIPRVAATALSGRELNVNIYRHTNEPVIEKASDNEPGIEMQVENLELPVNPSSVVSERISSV

[2] = biological target: T2, serotonin 5-HT1A receptors (Homo sapiens, UniProt P08908)
T2 sequence (P08908 1-422): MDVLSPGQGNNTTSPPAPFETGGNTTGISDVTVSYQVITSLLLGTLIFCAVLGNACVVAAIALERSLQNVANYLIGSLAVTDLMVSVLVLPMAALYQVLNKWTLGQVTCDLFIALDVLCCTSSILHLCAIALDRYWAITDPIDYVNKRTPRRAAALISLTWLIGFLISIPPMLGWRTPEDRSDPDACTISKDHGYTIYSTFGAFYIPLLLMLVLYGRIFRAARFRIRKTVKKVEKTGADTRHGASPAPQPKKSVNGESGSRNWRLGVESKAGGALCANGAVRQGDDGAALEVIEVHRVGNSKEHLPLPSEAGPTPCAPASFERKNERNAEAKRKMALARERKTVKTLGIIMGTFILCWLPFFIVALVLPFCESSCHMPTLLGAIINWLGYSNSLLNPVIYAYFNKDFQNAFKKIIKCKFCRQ

histamine H1 receptors = histamine H1 receptors (Homo sapiens, UniProt P35367)
[3] = biological target: serotonin 5-HT2A receptors (Homo sapiens, UniProt P28223)
serotonin reuptake sites = serotonin reuptake sites (Homo sapiens, UniProt P31645)
[4] = tested on: α1-adrenaline agonist receptors
[5] = tested on: cholinergic muscarinic receptors
[6] = upon exposure to moisture converts into the hydrate form

Chain of histamine H1 receptors (P35367 whole entry): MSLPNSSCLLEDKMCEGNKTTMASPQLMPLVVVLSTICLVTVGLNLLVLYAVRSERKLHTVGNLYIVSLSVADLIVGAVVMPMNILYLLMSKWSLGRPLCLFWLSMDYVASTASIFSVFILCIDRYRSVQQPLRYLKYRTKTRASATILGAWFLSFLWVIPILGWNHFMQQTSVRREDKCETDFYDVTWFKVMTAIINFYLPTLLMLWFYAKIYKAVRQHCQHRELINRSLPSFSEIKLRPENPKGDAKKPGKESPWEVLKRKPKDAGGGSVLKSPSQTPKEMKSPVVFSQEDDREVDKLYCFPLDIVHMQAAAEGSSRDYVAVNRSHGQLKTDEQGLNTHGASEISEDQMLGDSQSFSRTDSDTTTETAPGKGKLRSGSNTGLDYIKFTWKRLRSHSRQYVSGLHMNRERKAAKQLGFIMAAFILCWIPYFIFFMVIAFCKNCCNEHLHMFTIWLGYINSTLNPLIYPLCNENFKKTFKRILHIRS
Chain of serotonin 5-HT2A receptors (P28223 whole entry): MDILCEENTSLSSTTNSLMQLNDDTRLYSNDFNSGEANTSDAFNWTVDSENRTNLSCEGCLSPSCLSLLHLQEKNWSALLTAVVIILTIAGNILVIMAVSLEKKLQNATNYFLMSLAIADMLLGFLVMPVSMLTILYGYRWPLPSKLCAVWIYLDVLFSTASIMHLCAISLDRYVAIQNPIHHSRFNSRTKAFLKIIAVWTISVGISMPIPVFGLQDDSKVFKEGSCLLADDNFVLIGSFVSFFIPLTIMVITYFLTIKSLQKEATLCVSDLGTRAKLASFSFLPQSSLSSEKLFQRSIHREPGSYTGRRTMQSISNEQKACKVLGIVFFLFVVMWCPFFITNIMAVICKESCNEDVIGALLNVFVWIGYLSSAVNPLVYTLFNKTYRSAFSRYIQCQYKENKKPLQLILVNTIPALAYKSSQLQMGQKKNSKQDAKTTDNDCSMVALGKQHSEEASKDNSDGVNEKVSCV
Chain of serotonin reuptake sites (P31645 whole entry): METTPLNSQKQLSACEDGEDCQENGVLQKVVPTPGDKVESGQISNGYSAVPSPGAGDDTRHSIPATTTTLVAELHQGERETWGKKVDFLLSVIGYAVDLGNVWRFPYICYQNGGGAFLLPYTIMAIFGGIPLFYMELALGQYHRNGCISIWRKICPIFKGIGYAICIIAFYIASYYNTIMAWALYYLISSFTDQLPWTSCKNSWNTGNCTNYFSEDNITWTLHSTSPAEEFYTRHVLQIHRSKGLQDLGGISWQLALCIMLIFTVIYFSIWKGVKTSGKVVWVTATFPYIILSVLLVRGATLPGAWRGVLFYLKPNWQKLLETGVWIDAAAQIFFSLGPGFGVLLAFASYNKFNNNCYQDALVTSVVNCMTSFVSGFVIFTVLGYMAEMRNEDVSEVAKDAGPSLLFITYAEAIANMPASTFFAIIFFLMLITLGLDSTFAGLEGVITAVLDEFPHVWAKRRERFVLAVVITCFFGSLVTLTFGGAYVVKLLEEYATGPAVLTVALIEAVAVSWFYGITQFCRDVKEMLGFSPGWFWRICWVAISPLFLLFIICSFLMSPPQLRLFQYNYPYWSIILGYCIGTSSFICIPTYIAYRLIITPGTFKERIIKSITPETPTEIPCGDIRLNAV

Compound | affinity for serotonin 5-HT2C receptors [1] | affinity for serotonin 5-HT1A receptors [2] | affinity for histamine H1 receptors (histamine H1 receptors) | affinity for serotonin 5-HT2A receptors [3] | affinity for serotonin reuptake sites (serotonin reuptake sites) | affinity for α1-adrenaline agonist receptors [4] | affinity for cholinergic muscarinic receptors [5] | hygroscopic property [6]
O=C1CCc2ccc(OCCCCN3CCN(c4cccc(Cl)c4Cl)CC3)cc2N1 [Aripiprazole] | mild affinity | potent affinity | mild affinity | potent affinity | mild affinity | mild affinity | no detectable affinity | –
O=C1CCc2ccc(OCCCCN3CCN(c4cccc(Cl)c4Cl)CC3)cc2N1 [anhydrous aripiprazole crystal form I, Aripiprazole] | – | – | – | – | – | – | – | significant hygroscopic property
